From patent publication US20250313533A1, “QUINOLINE CARBOXYLIC ACID ESTER COMPOUND AND PREPARATION METHOD AND USE THEREOF” (priority 2019, published 2025)

Columns and labels:
[1] = system: soft rot in Chinese cabbages; experiment: whole plant or invertebrate; details: 48 h, read-out: efficacy against soft rot in Chinese cabbages
[2] = system: fruit blotch in watermelons; experiment: whole plant or invertebrate; details: read-out: efficacy against fruit blotch in watermelons
[3] = system: stem rot in sweet potatoes; experiment: whole plant or invertebrate; details: read-out: efficacy against stem rot in sweet potatoes
[4] = system: pathogenic bacteria causing bacterial wilt in tobacco; experiment: whole plant or invertebrate; type: cell-based, ralstonia; details: read-out: inhibitory rate
[5] = system: pathogenic bacteria causing stem rot in sweet potatoes; experiment: In vitro bactericidal activity, stem rot in sweet potatoes; type: cell-based, dikia; details: read-out: inhibitory rate; for inhibition at 1 ppm: dosage 1 ppm; for inhibition at 5 ppm: dosage 5 ppm
Protocol: (§1) Under aseptic conditions, equal amounts of NB culture medium were added to test tubes, and fixed amounts of the sample solutions were pipetted into the above test tubes in an ascending order of concentrations, respectively. The mixtures were well mixed and added with equal amounts of a bacterial suspension in log phase.
(§2) Each step of the procedure was repeated 4 times. After mixing, the mixture samples were incubated in the dark in a shaking incubator at 25° C. The OD values were measured when the bacteria were in log phase.

bacterial blight in rice = experiment: whole plant or invertebrate; details: Oryza sativa, read-out: efficacy against bacterial blight in rice
[6] = system: bacterial wilt in tobacco; experiment: whole plant or invertebrate; details: Nicotiana tabacum, read-out: efficacy against bacterial wilt in tobacco
[7] = system: pathogenic bacteria causing bacterial angular leaf spot in cucumbers; experiment: In vitro bactericidal activity, bacterial angular leaf spot in cucumbers; type: cell-based, pseudomonas; details: read-out: inhibitory rate; for inhibition at 1 ppm: dosage 1 ppm; for inhibition at 5 ppm: dosage 5 ppm
Protocol: as §1, §2

black shank in potatoes = experiment: Living crops in vivo protective activity, potatoes (root irrigation); details: Solanum tuberosum, read-out: efficacy against black shank in potatoes; for pest or weed control at 5 ppm: dosage 5 ppm; for pest or weed control at 10 ppm: dosage 10 ppm
Protocol: Root irrigation was carried out on the potatoes for tests according to the designed concentration of the agents. The dosage for each plant was 200 mL and was kept consistent (also for the control). The black shank bacteria were inoculated on the second day after the application. The results were investigated according to the disease condition.

[8] = system: pathogenic bacteria causing fire blight in pears; experiment: In vitro bactericidal activity, fire blight in pears; type: cell-based, erwinia; details: Erwinia, read-out: inhibitory rate; for inhibition at 1 ppm: dosage 1 ppm; for inhibition at 5 ppm: dosage 5 ppm
Protocol: as §1, §2

[9] = system: pathogenic bacteria causing bacterial wilt in cassava; experiment: organism not typed; type: cell-based; details: read-out: inhibitory rate
[10] = system: pathogenic bacteria causing black shank in potatoes; experiment: In vitro bactericidal activity, black shank in potatoes; type: cell-based; details: read-out: inhibitory rate; for inhibition at 1 ppm: dosage 1 ppm; for inhibition at 5 ppm: dosage 5 ppm
Protocol: as §1, §2

cucumber seedlings = experiment: Safety for plant growth after application; type: in vivo; details: dosage 200 ppm
Text: Taking indoor potted cucumber seedlings as an example, the influence of the compound disclosed herein on growth rate of plant height, chlorophyll content, leaf area, etc. of crops was mainly evaluated.
The results of safety and health-care effect of the compounds of the present disclosure on cucumber seedlings are shown in the following table 1: […]

[11] = system: pathogenic bacteria causing fruit blotch in watermelons; experiment: In vitro bactericidal activity, fruit blotch in watermelons; type: cell-based, acidovorax; details: read-out: inhibitory rate; for inhibition at 1 ppm: dosage 1 ppm; for inhibition at 5 ppm: dosage 5 ppm
Protocol: as §1, §2

[12] = system: pathogenic bacteria causing bacterial blight in rice; experiment: whole plant or invertebrate; type: cell-based, xanthomonas; details: read-out: inhibitory rate
[13] = system: pathogenic bacteria causing black rot in Chinese cabbages; experiment: In vitro bactericidal activity, black rot in Chinese cabbages; type: cell-based, xanthomonas; details: Xanthomonas, read-out: inhibitory rate; for inhibition at 1 ppm: dosage 1 ppm; for inhibition at 5 ppm: dosage 5 ppm
Protocol: as §1, §2

Row | Compound | pest or weed control at 5 ppm [1] [%] | pest or weed control at 10 ppm [1] [%] | pest or weed control at 5 ppm [2] [%] | pest or weed control at 10 ppm [2] [%] | pest or weed control at 5 ppm [3] [%] | pest or weed control at 10 ppm [3] [%] | inhibition at 1 ppm [4] [%] | inhibition at 5 ppm [4] [%] | inhibition at 1 ppm [5] [%] | inhibition at 5 ppm [5] [%] | pest or weed control at 5 ppm (bacterial blight in rice) [%] | pest or weed control at 10 ppm (bacterial blight in rice) [%] | pest or weed control at 5 ppm [6] [%] | pest or weed control at 10 ppm [6] [%] | inhibition at 1 ppm [7] [%] | inhibition at 5 ppm [7] [%] | pest or weed control at 5 ppm (black shank in potatoes) [%] | pest or weed control at 10 ppm (black shank in potatoes) [%] | inhibition at 1 ppm [8] [%] | inhibition at 5 ppm [8] [%] | also measured
1 | O=C(OCCO)c1cn(C2CC2)c2cc(F)ccc2c1=O [Compound 194] | ≥ 80 | ≥ 90 | ≥ 90 | ≥ 90 | ≥ 90 | ≥ 90 | ≥ 80 | ≥ 90 | ≥ 80 | ≥ 90 | ≥ 80 | ≥ 90 | ≥ 90 | ≥ 90 | ≥ 80 | ≥ 90 | ≥ 80 | ≥ 90 | ≥ 80 | ≥ 90 | inhibition at 1 ppm [9]: ≥ 80%; inhibition at 5 ppm [9]: ≥ 90%; inhibition at 1 ppm [10]: ≥ 80%; inhibition at 5 ppm [10]: ≥ 90%; safety for plant growth (discoloration, necrosis, wilt, malformation) (cucumber seedlings): safe for plant growth; inhibition at 1 ppm [11]: ≥ 80%; inhibition at 5 ppm [11]: ≥ 90%; inhibition at 1 ppm [12]: ≥ 80%; inhibition at 5 ppm [12]: ≥ 90%; inhibition at 1 ppm [13]: ≥ 80%; inhibition at 5 ppm [13]: ≥ 90%
2 | CCOc1cc2c(cc1F)c(=O)c(C(=O)OCCOC(C)C)cn2C1CC1 [Compound 300] | ≥ 90 | ≥ 90 | ≥ 90 | ≥ 90 | ≥ 90 | ≥ 90 | ≥ 90 | ≥ 90 | ≥ 90 | ≥ 90 | ≥ 90 | ≥ 90 | ≥ 90 | ≥ 90 | ≥ 90 | ≥ 90 | ≥ 90 | ≥ 90 | ≥ 90 | ≥ 90 | inhibition at 1 ppm [9]: ≥ 90%; inhibition at 5 ppm [9]: ≥ 90%; inhibition at 1 ppm [10]: ≥ 90%; inhibition at 5 ppm [10]: ≥ 90%; safety for plant growth (discoloration, necrosis, wilt, malformation) (cucumber seedlings): safe for plant growth; inhibition at 1 ppm [11]: ≥ 90%; inhibition at 5 ppm [11]: ≥ 90%; inhibition at 1 ppm [12]: ≥ 90%; inhibition at 5 ppm [12]: ≥ 90%; inhibition at 1 ppm [13]: ≥ 90%; inhibition at 5 ppm [13]: ≥ 90%
3 | CCOCOC(=O)c1cn(C2CC2)c2cc(OCC)c(F)cc2c1=O [Compound 312] | ≥ 90 | ≥ 90 | ≥ 90 | ≥ 90 | ≥ 90 | ≥ 90 | ≥ 90 | ≥ 90 | ≥ 90 | ≥ 90 | ≥ 80 | ≥ 90 | ≥ 90 | ≥ 90 | ≥ 90 | ≥ 90 | ≥ 90 | ≥ 90 | ≥ 90 | ≥ 90 | inhibition at 1 ppm [9]: ≥ 90%; inhibition at 5 ppm [9]: ≥ 90%; inhibition at 1 ppm [10]: ≥ 90%; inhibition at 5 ppm [10]: ≥ 90%; safety for plant growth (discoloration, necrosis, wilt, malformation) (cucumber seedlings): safe for plant growth; inhibition at 1 ppm [11]: ≥ 90%; inhibition at 5 ppm [11]: ≥ 90%; inhibition at 1 ppm [12]: ≥ 80%; inhibition at 5 ppm [12]: ≥ 90%; inhibition at 1 ppm [13]: ≥ 90%; inhibition at 5 ppm [13]: ≥ 90%
4 | COCCOC(=O)c1cn(C2CC2)c2cc(OC)ccc2c1=O [Compound 353] | ≥ 80 | ≥ 90 | ≥ 90 | ≥ 90 | ≥ 90 | ≥ 90 | ≥ 80 | ≥ 90 | ≥ 80 | ≥ 90 | ≥ 80 | ≥ 90 | ≥ 90 | ≥ 90 | ≥ 80 | ≥ 90 | ≥ 80 | ≥ 90 | ≥ 80 | ≥ 90 | inhibition at 1 ppm [9]: ≥ 80%; inhibition at 5 ppm [9]: ≥ 90%; inhibition at 1 ppm [10]: ≥ 80%; inhibition at 5 ppm [10]: ≥ 90%; safety for plant growth (discoloration, necrosis, wilt, malformation) (cucumber seedlings): safe for plant growth; inhibition at 1 ppm [11]: ≥ 80%; inhibition at 5 ppm [11]: ≥ 90%; inhibition at 1 ppm [12]: ≥ 80%; inhibition at 5 ppm [12]: ≥ 90%; inhibition at 1 ppm [13]: ≥ 80%; inhibition at 5 ppm [13]: ≥ 90%
5 | O=C(OCCO)c1cn(C2CC2)c2cc(OCC(F)(F)F)ccc2c1=O [Compound 360] | ≥ 80 | ≥ 90 | ≥ 90 | ≥ 90 | ≥ 90 | ≥ 90 | ≥ 80 | ≥ 90 | ≥ 80 | ≥ 90 | ≥ 80 | ≥ 90 | ≥ 90 | ≥ 90 | ≥ 80 | ≥ 90 | ≥ 80 | ≥ 90 | ≥ 80 | ≥ 90 | inhibition at 1 ppm [9]: ≥ 80%; inhibition at 5 ppm [9]: ≥ 90%; inhibition at 1 ppm [10]: ≥ 80%; inhibition at 5 ppm [10]: ≥ 90%; safety for plant growth (discoloration, necrosis, wilt, malformation) (cucumber seedlings): safe for plant growth; inhibition at 1 ppm [11]: ≥ 80%; inhibition at 5 ppm [11]: ≥ 90%; inhibition at 1 ppm [12]: ≥ 80%; inhibition at 5 ppm [12]: ≥ 90%; inhibition at 1 ppm [13]: ≥ 80%; inhibition at 5 ppm [13]: ≥ 90%
6 | CSc1cc2c(cc1F)c(=O)c(C(=O)OCCO)cn2C1CC1 [Compound 371] | ≥ 90 | ≥ 90 | ≥ 90 | ≥ 90 | ≥ 90 | ≥ 90 | ≥ 90 | ≥ 90 | ≥ 90 | ≥ 90 | ≥ 90 | ≥ 90 | ≥ 90 | ≥ 90 | ≥ 90 | ≥ 90 | ≥ 90 | ≥ 90 | ≥ 90 | ≥ 90 | inhibition at 1 ppm [9]: ≥ 90%; inhibition at 5 ppm [9]: ≥ 90%; inhibition at 1 ppm [10]: ≥ 90%; inhibition at 5 ppm [10]: ≥ 90%; safety for plant growth (discoloration, necrosis, wilt, malformation) (cucumber seedlings): safe for plant growth; inhibition at 1 ppm [11]: ≥ 90%; inhibition at 5 ppm [11]: ≥ 90%; inhibition at 1 ppm [12]: ≥ 90%; inhibition at 5 ppm [12]: ≥ 90%; inhibition at 1 ppm [13]: ≥ 90%; inhibition at 5 ppm [13]: ≥ 90%
